This is an account of results in patent publication US20120178147A1, “MICROBIAL CULTURES AND METHODS FOR ANAEROBIC BIOREMEDIATION” (priority 2009, published 2012).

The test system of series [1] is general bacteria. As to the kind of experiment: qRT-PCR of general bacteria 16S rRNA genes in DehaloR̂2 cultures. It counts as cell-based. The conditions noted are these: for General bacteria 16S rRNA gene copies, day 22 / General bacteria 16S rRNA gene copies, initial: DehaloR̂2 with 1.5 μM TCC or 35 μM TCS. How it is done:
Quantitative real-time PCR (qRT-PCR) was performed for enumeration of general 16S rRNA genes and Dehalococcoides 16S rRNA genes in culture DehaloR̂2 and Bio-Dechlor INOCULUM. The primers used for general 16S rRNA genes were Bac1055F (5′-ATG GYT GTC GTC ACCT-3′) and Bac1392R (5′-ACG GGC GGT GTG TAC-3′) (Ritalahti et al., 2006), and the probe was Bac16sTaq (FAM-CAA CGA GCG CAA CCC/3-BHQ-1/). The final volume of PCR reactions was 10 μL, and the final concentration of each chemical in a single reaction tube was: 1× RealMasterMix (Fisher Scientific, Pittsburgh, Pa.), 300 nM Probe, 300 nM each Primer, and 130 nM DNA samples. The PCR conditions were as follows: 2 min at 95° C. followed by 40 cycles of 10 s at 95° C., 20 s at 56° C. and 20 s at 68° C. The primers used for Dehalococcoides 16S rRNA genes were Dhc1200F (5′-CTGGAGCTAATCCCCAAAGCT-3′) and Dhc1271R (5′-CAA CTT CAT GCA GGC GGG-3′), and the probe was Dhc1240Pr (FAM-TCCTCAGTTCGGATTGCAGGC TGAA/3-BHQ-1) (He et al., 2003b). The final volume of PCR reactions was 10 μL, and the final concentration of each chemical in a single reaction tube was: 1× RealMasterMix (Fisher Scientific, Pittsburgh, Pa.), 200 nM Probe, 700 nM each Primer, and 130 nM DNA samples. The PCR conditions were as follows: 2 min at 95° C. followed by 40 cycles of 15 s at 95° C., 20 s at 58° C. and 20 s at 68° C.
Quantitative Real time PCR (qRT-PCR) was carried out in a spectrofluorimetric thermal cycler (Master cycler, epgradient S, Eppendorf). Calibration curves were performed in triplicate and a linear range of 6 orders of magnitude was obtained. Plasmids containing Dehalococcoides strain BAV1 16S rRNA genes were used as standards to construct general 16S rRNA genes and Dehalococcoides 16S rRNA genes calibration curves. The slopes of the calibration curves for general 16S rRNA genes and Dehalococcoides 16S rRNA genes were −3.46 and −3.94, and the Y intercepts were 38 and 44.2, respectively.
DNA Extraction and Quantitative Real-Time PCR. The BDI cultures and DehaloR^2 cultures were shaken vigorously first and then 10 ml of the mixed liquid was removed with a sterile syringe and dispensed into 10 1.5 ml micro centrifuge tubes. These micro centrifuge tubes were then centrifuged at 13,000 rpm for 15 min in order to make a pellet, and the pellet was used for DNA extraction. Qiagen DNeasy Blood & Tissue Kit with modifications to enhance lysis was used for DNA isolation from cultures. DNA samples were stored at −20° C.
Quantitative real-time PCR (qRT-PCR) was performed for enumeration of general 16S rRNA genes and Dehalococcoides 16S rRNA genes in BDI culture without TCC&TCS, BDI culture with 1.5 μM TCC, BDI culture with 35 μM TCS, D DehaloR̂2 culture without TCC&TCS, DehaloR^2 culture with 1.5 μM TCC and DehaloR̂2^2 culture with 35 μM TCS.
The primers used for general 16S rRNA genes were Bac1055F (5′-ATGGYTGTCGTCAGCT-3′) and Bac1392R (5′-ACGGGCGGTGTGTAC-3′) (Ritalahti et al., 2006), and the probe was Bac16sTaq (FAM-CAACGAGCGCAACCC/3-BHQ-1/). The final volume of PCR reactions was 10 μL, and the final concentration of each chemical in a single reaction tube was: 1× RealMasterMix (Fisher Scientific, Pittsburgh, Pa.), 300 nM Probe, 300 nM each Primer, and 130 nM DNA samples. The PCR conditions were as follows: 2 min at 95° C. followed by 40 cycles of 10 s at 95° C., 20 s at 56° C. and 20 s at 68° C.
The qRT-PCR was carried out in a spectrofluorimetric thermal cycler (Master cycler, epgradient S, Eppendorf). […]

The conditions of series [2]: at 25° C.; cited from earlier work.

Regarding `O=C(Nc1ccc(Cl)cc1)Nc1ccc(Cl)c(Cl)c1` [TCC, 3-(4-chlorophenyl)-1-(3,4-dichlorphenyl) urea], in series [1], the “General bacteria 16S rRNA gene copies, day 22” value is 1.6×10^8 gene copies/ml and the “General bacteria 16S rRNA gene copies, initial” value is 1.3×10^7 gene copies/ml. Moreover, in series [2], the Vapor pressure is on record as 3.61 × 10^−9 mm Hg.
For `Oc1cc(Cl)ccc1Oc1ccc(Cl)cc1Cl` [TCS, 5-chloro-2-[2,4-dichloro-phenoxy]-phenol], in series [1], the “General bacteria 16S rRNA gene copies, day 22” value is reported as 7.5×10^7 gene copies/ml and the “General bacteria 16S rRNA gene copies, initial” value was 2.2×10^7 gene copies/ml. Further, the “General bacteria 16S rRNA gene copies, day 22 relative to initial” value in series [1] (DehaloR̂2 with 35 μM TCS) stood at 3.5 times. In addition, in series [2], the Vapor pressure was 4.65 × 10^−6 mm Hg.
